Data: US7247617B2, “Sixteen-member macrolide antiinfective agents” (Kosan Biosciences Incorporated, priority 2004, dated 2007)

What was measured:
[1] = test system: a series of bacterial strains; test: Biological activity against a series of bacterial strains (overall statements); type: cell-based
Excerpt: Results for S. pneumoniae, S. aureus, S. epidermidis, and E. faecalis are provided in Table B. Data on activity against H. influenzae for selected compounds are presented in Table C.

S. aureus = test: Biological activity against bacterial strains: S. aureus; type: cell-based, Staphylococcus aureus; parameters: unit not given here; conditions: for Biological Activity, S. aureus ATCC6538p: strain ATCC6538p; for Biological Activity, S. aureus ATCC14154*: strain ATCC14154, macrolide resistant strain; for Biological Activity, S. aureus ATCC29213: strain ATCC29213; for Biological Activity, S. aureus ATCC33591*: strain ATCC33591, macrolide resistant strain; for Biological Activity, S. aureus ATCCBAA-39*: strain ATCCBAA-39, macrolide resistant strain; for Biological Activity, S. aureus ATCCBAA-44*: strain ATCCBAA-44, macrolide resistant strain
E. faecalis = test: Biological activity against bacterial strains: E. faecalis; type: cell-based, Enterococcus faecalis; conditions: strain ATCC51575
S. epidermidis = test: Biological activity against bacterial strains: S. epidermidis; type: cell-based, Staphylococcus epidermidis; conditions: strain ATCC12228
S. pneumoniae = test: Biological activity against bacterial strains: S. pneumoniae; type: cell-based, Streptococcus pneumoniae; parameters: Biological Activity, S. pneumoniae ATCC6301 / Biological Activity, S. pneumoniae ATCC700671 / Biological Activity, S. pneumoniae ATCC700676* / Biological Activity, S. pneumoniae ATCC700677* / Biological Activity, S. pneumoniae ATCC700905* / Biological Activity, S. pneumoniae ATCC700906* / Biological Activity, S. pneumoniae ATCC49619: unit not given here; conditions: for Biological Activity, S. pneumoniae ATCC6301: strain ATCC6301; for Biological Activity, S. pneumoniae ATCC49619: strain ATCC49619; for Biological Activity, S. pneumoniae ATCC700671: strain ATCC700671; for Biological Activity, S. pneumoniae ATCC700676*: strain ATCC700676, macrolide resistant strain; for Biological Activity, S. pneumoniae ATCC700677*: strain ATCC700677, macrolide resistant strain; for Biological Activity, S. pneumoniae ATCC700905*: strain ATCC700905, macrolide resistant strain; for Biological Activity, S. pneumoniae ATCC700906*: strain ATCC700906, macrolide resistant strain
Haemophilus Influenzae = test: H. influenzae Activity; type: cell-based

| SMILES | Biological Activity, S. aureus ATCC6538p (S. aureus) | Biological Activity, S. aureus ATCC14154* (S. aureus) | Biological Activity, S. aureus ATCC29213 (S. aureus) | Biological Activity, S. aureus ATCC33591* (S. aureus) | Biological Activity, S. aureus ATCCBAA-39* (S. aureus) | Biological Activity, S. aureus ATCCBAA-44* (S. aureus) | Biological Activity, E. faecalis ATCC51575 (E. faecalis) | Biological Activity, S. epidermidis ATCC12228 (S. epidermidis) | Biological Activity, S. pneumoniae ATCC6301 (S. pneumoniae) | Biological Activity, S. pneumoniae ATCC49619 (S. pneumoniae) | Biological Activity, S. pneumoniae ATCC700671 (S. pneumoniae) | Biological Activity, S. pneumoniae ATCC700676* (S. pneumoniae) | Biological Activity, S. pneumoniae ATCC700677* (S. pneumoniae) | Biological Activity, S. pneumoniae ATCC700905* (S. pneumoniae) | Biological Activity, S. pneumoniae ATCC700906* (S. pneumoniae) | H. influenzae Activity, strain ATCC9006 (Haemophilus Influenzae) | H. influenzae Activity, strain ATCC49766 (Haemophilus Influenzae) | other results |
| --- | --- | --- | --- | --- | --- | --- | --- | --- | --- | --- | --- | --- | --- | --- | --- | --- | --- | --- |
| CCC1OC(=O)CC(O)C(C)C(OC2OC(C)C(O)C(N(C)C)C2O)C(CCN2CC(C)CC(C)C2)CC(C)C(=NO)C=CC(C)=CC1CO (centres unmarked) [Compound 9, 20-deoxy(3,5-dimethyl-1-piperidine)OMT 9-oxime, reference compound] |  |  |  |  |  |  |  |  |  |  |  |  |  |  |  |  |  | antibiotic / antibacterial activity (in words) [1]: no antibiotic activity |
| CC[C@H]1OC(=O)C[C@@H](O)[C@H](C)[C@@H](OC2OC(C)C(O)C(N(C)C)C2O)[C@@H](CC=O)C[C@@H](C)C(=N\OCCOc2ccccc2)/C=C/C(C)=C/C1CO (some centres unmarked) [Compound IIb] | 0.39 | 1.56 | 1.56 | >12.5 | >12.5 | >12.5 | >12.5 | 0.78 | 0.025 | 0.20 | 0.20 | 0.025 | 1.56 | 0.20 | >12.5 |  |  | activity of Z-configuration oxime versus its E counterpart (in words) [1]: more active than compound Ia |
| CC[C@H]1OC(=O)C[C@@H](O)[C@H](C)[C@@H](O[C@@H]2O[C@H](C)[C@@H](O)[C@H](N(C)C)[C@H]2O)[C@@H](CC=O)C[C@@H](C)C(=O)/C=C/C(C)=C/[C@@H]1CO [OMT, 5-O-mycaminosyltylonolide, reference compound] | 0.39 | 1.56 | 0.78 | >12.5 | >12.5 | >12.5 | >12.5 | 0.39 | 0.025 | 0.098 | 0.049 | 0.78 | 6.25 | 0.78 | >12.5 | 1.56 | 1.56 | H. influenzae Activity, strain EH001 (Haemophilus Influenzae; strain EH001): 3.12; H. influenzae Activity, strain EH002 (Haemophilus Influenzae; strain EH002): 6.25; H. influenzae Activity, strain EH003 (Haemophilus Influenzae; strain EH003): 1.56 |
| CCC1OC(=O)CC(O)C(C)C(OC2OC(C)C(O)C(N(C)C)C2O)C(CC=O)CC(C)C(=NOCC#Cc2cnc3ccccc3c2)C=CC(C)=CC1CO (single isomer, unassigned) [Compound E] | 0.098 | 0.39 | 0.39 | >12.5 | >12.5 | >12.5 | >12.5 | 0.098 | 0.025 | 0.025 | 0.025 | 0.025 | >12.5 | 0.049 | >12.5 |  |  | activity of Z-configuration oxime versus its E counterpart (in words) [1]: more active than compound D |
| CCC1OC(=O)CC(O)C(C)C(OC2OC(C)C(O)C(N(C)C)C2O)C(CC=O)CC(C)C(=NOCCCOc2ccc3ncccc3c2)C=CC(C)=CC1COC(=O)NCc1ccccc1 (centres unmarked) [Compound DD] | 0.78 | 1.56 | 0.78 | 12.5 | >12.5 | >12.5 | >12.5 | 0.78 | 0.049 | 0.049 | 0.049 | 0.049 | 0.2 | >12.5 | 0.049 | 12.5 | 12.5 |  |
| CCC1OC(=O)CC(O)C(C)C(OC2OC(C)C(O)C(N(C)C)C2O)C(CC=O)CC(C)C(=NOCC=Cc2cnc3ccccc3c2)C=CC(C)=CC1COC(=O)NCc1ccccc1 (centres unmarked) [Compound FF] | 1.56 | 6.25 | 3.12 | 12.5 | >12.5 | >12.5 | >12.5 | 3.12 | 0.2 | 0.2 | 0.2 | 0.049 | 0.2 | 0.098 | >12.5 | 12.5 | 12.5 |  |
| CCC1OC(=O)CC(O)C(C)C(OC2OC(C)C(O)C(N(C)C)C2O)C(CC=O)CC(C)C(=NOCCCCOc2ccc3ncccc3c2)C=CC(C)=CC1COC(=O)NCc1ccccc1 (centres unmarked) [Compound EE] | 3.12 | 6.25 | 6.25 | >12.5 | >12.5 | >12.5 | >12.5 | 6.25 | 0.049 | 0.098 | 0.2 | 0.049 | 0.39 | 0.049 | >12.5 | 12.5 | >12.5 |  |
| CCC1OC(=O)CC(O)C(C)C(OC2OC(C)C(O)C(N(C)C)C2O)C(CC=O)CC(C)C(=NOCCCCc2cnc3ccccc3c2)C=CC(C)=CC1CO (centres unmarked) [Compound J] | 0.025 | 0.20 | 0.20 | >12.5 | >12.5 | >12.5 | >12.5 | 0.20 | 0.025 | 0.049 | 0.025 | 0.025 | 0.025 | 0.025 | >12.5 | 6.25 | 6.25 | decrease in activity compared to OMT (Haemophilus Influenzae; strains ATCC9006 and ATCC49766): ~4 fold |
